Structures can show the parent of a compound that is named as a salt. Where two headings read alike, the source gives them in different places.
Experiments:
Kunming breed mice [1] = type: in vivo
mice [2] = assay: Toxicity test of the active medical ingredients (previous acute toxicology); details: mouse, in vivo
Kunming breed mice [3] = assay: Body twisting test, mixtures of fuziline and benzoylmesaconitine in different proportions (Test 7); type: in vivo; details: benzoylmesaconitine 100 mg/kg stomach perfusion
mice [4] = type: in vivo; details: Table 5
Text: The division of animal groups, content of test drugs, dose and administration is the same as those in the body twisting test, while the contra positive is pethidine hydrochloride only.
In the course of the test, the mice show up reactions of hindleg sucking, hindleg kicking, skipping, etc; take the reaction of hindleg sucking as the pain indicator.

[5] = Toxicity test of the active medical ingredients (previous acute toxicology); details: mouse, in vivo
Kunming breed mice [6] = assay: Body twisting test, mixtures of fuziline and hypaconitine in different proportions (Test 6); type: in vivo; details: hypaconitine 1 mg/kg stomach perfusion
Kunming breed mice [7] = type: in vivo; details: mesaconitine 0.5 mg/kg stomach perfusion
[8] = Table 3, 50 mg/kg stomach perfusion
[9] = Table 3, 100 mg/kg stomach perfusion
[10] = Table 3, 200 mg/kg stomach perfusion
[11] = Table 3, 400 mg/kg stomach perfusion
[12] = Table 3, 0.5 mg/kg stomach perfusion
[13] = Table 3, 1 mg/kg stomach perfusion
[14] = Table 3, 2 mg/kg stomach perfusion
[15] = Table 3, 4 mg/kg stomach perfusion
[16] = Table 3, 0.25 mg/kg stomach perfusion

SMILES: COC[C@]12CN(C)[C@H]3C4C(OC)C1C3(C(OC)CC2O)C1C[C@@]2(O)C(OC(=O)c3ccccc3)C1[C@]4(O)[C@@H](O)C2OC (stereo partly shown) [Benzoylmesaconitine, benzoylmesaconitine]
- Body twisting number ( χ ± SD) (Kunming breed mice [1]; [8]): 27.2 ± 12.2
- Pain suppression rate (Kunming breed mice [1]; [8]): 20.70%
- Body twisting number ( χ ± SD) (Kunming breed mice [1]; [9]): 27.4 ± 15.9
- Pain suppression rate (Kunming breed mice [1]; [9]): 20.12%
- Body twisting number ( χ ± SD) (Kunming breed mice [1]; [10]): 21.0 ± 15.1
- Pain suppression rate (Kunming breed mice [1]; [10]): 38.78%
- Body twisting number ( χ ± SD) (Kunming breed mice [1]; [11]): 20.4 ± 12.9
- Pain suppression rate (Kunming breed mice [1]; [11]): 40.52%
- maximum tolerance dose (mice [2]): 1000 mg/kg
- Pain suppression rate (Kunming breed mice [3]): 34.6%
- Increasing rate of threshold pain after administration ( X ± SD) (mice [4]; 200 mg/kg stomach perfusion, 15 minutes): 22.1 ± 52.0%
- Increasing rate of threshold pain after administration ( X ± SD) (mice [4]; 200 mg/kg stomach perfusion, 30 minutes): 32.9 ± 45.1 %
- Increasing rate of threshold pain after administration ( X ± SD) (mice [4]; 200 mg/kg stomach perfusion, 60 minutes): 40.3 ± 76.4%
- Increasing rate of threshold pain after administration ( X ± SD) (mice [4]; 200 mg/kg stomach perfusion, 90 minutes): 46.0 ± 87.4%
- Increasing rate of threshold pain after administration ( X ± SD) (mice [4]; 200 mg/kg stomach perfusion, 120 minutes): 53.6 ± 93.9%
- Increasing rate of threshold pain after administration ( X ± SD) (mice [4]; 400 mg/kg stomach perfusion, 15 minutes): 41.3 ± 90.2%
- Increasing rate of threshold pain after administration ( X ± SD) (mice [4]; 400 mg/kg stomach perfusion, 30 minutes): 35.2 ± 57.2 %
- Increasing rate of threshold pain after administration ( X ± SD) (mice [4]; 400 mg/kg stomach perfusion, 60 minutes): 78.8 ± 104.0 %
- Increasing rate of threshold pain after administration ( X ± SD) (mice [4]; 400 mg/kg stomach perfusion, 90 minutes): 59.5 ± 88.5%
- Increasing rate of threshold pain after administration ( X ± SD) (mice [4]; 400 mg/kg stomach perfusion, 120 minutes): 53.7 ± 117.0%
- Increasing rate of threshold pain after administration ( X ± SD) (mice [4]; benzoylmesaconitine 100 mg/kg stomach perfusion, 15 minutes): −0.4 ± 33.8%
- Increasing rate of threshold pain after administration ( X ± SD) (mice [4]; benzoylmesaconitine 100 mg/kg stomach perfusion, 30 minutes): 13.7 ± 52.3%
- Increasing rate of threshold pain after administration ( X ± SD) (mice [4]; benzoylmesaconitine 100 mg/kg stomach perfusion, 60 minutes): 64.6 ± 76.7 %
- Increasing rate of threshold pain after administration ( X ± SD) (mice [4]; benzoylmesaconitine 100 mg/kg stomach perfusion, 90 minutes): 71.1 ± 104.5%
- Increasing rate of threshold pain after administration ( X ± SD) (mice [4]; benzoylmesaconitine 100 mg/kg stomach perfusion, 120 minutes): 106.2 ± 116.5%

SMILES: COC[C@@]12CCC(OC)C34C5C[C@@]6(O)C(OC(=O)c7ccccc7)C5[C@@](OC(C)=O)(C(C(OC)C31)[C@@H]4N(C)C2)[C@@H](O)C6OC (stereo partly shown) [Hypaconitine, hypaconitine]
- Body twisting number ( χ ± SD) (Kunming breed mice [1]; [12]): 27.6 ± 11.5
- Pain suppression rate (Kunming breed mice [1]; [12]): 29.77%
- Body twisting number ( χ ± SD) (Kunming breed mice [1]; [13]): 24.5 ± 9.8
- Pain suppression rate (Kunming breed mice [1]; [13]): 37.66%
- Body twisting number ( χ ± SD) (Kunming breed mice [1]; [14]): 23.6 ± 10.9
- Pain suppression rate (Kunming breed mice [1]; [14]): 39.95%
- Body twisting number ( χ ± SD) (Kunming breed mice [1]; [15]): 2.8 ± 4.5
- Pain suppression rate (Kunming breed mice [1]; [15]): 92.88%
- LD50 ([5]; 8.19 mg/kg, 95% of the confidence interval of LD50): 10.9 to 15 mg/kg
- LD50 ([5]; 8.19 mg/kg, LD50, previous acute toxicology): 12.8 mg/kg
- LD50 ([5]; LD50): 12.8 mg/kg
- dose with no mice dead (mice [2]): 8.19 mg/kg
- Increasing rate of threshold pain after administration ( X ± SD) (mice [4]; 1 mg/kg stomach perfusion, 15 minutes): −16.6 ± 31.9%
- Increasing rate of threshold pain after administration ( X ± SD) (mice [4]; 1 mg/kg stomach perfusion, 30 minutes): −31.9 ± 24.2%
- Increasing rate of threshold pain after administration ( X ± SD) (mice [4]; 1 mg/kg stomach perfusion, 60 minutes): −18.1 ± 34.5%
- Increasing rate of threshold pain after administration ( X ± SD) (mice [4]; 1 mg/kg stomach perfusion, 90 minutes): −13.0 ± 14.9%
- Increasing rate of threshold pain after administration ( X ± SD) (mice [4]; 1 mg/kg stomach perfusion, 120 minutes): 28.3 ± 56.3%
- Increasing rate of threshold pain after administration ( X ± SD) (mice [4]; 2 mg/kg stomach perfusion, 15 minutes): 72.4 ± 57.6 %
- Increasing rate of threshold pain after administration ( X ± SD) (mice [4]; 2 mg/kg stomach perfusion, 30 minutes): 36.0 ± 53.4%
- Increasing rate of threshold pain after administration ( X ± SD) (mice [4]; 2 mg/kg stomach perfusion, 60 minutes): 17.3 ± 56.1%
- Increasing rate of threshold pain after administration ( X ± SD) (mice [4]; 2 mg/kg stomach perfusion, 90 minutes): 15.3 ± 60.1%
- Increasing rate of threshold pain after administration ( X ± SD) (mice [4]; 2 mg/kg stomach perfusion, 120 minutes): −13.0 ± 33.1%
- Increasing rate of threshold pain after administration ( X ± SD) (mice [4]; 4 mg/kg stomach perfusion, 15 minutes): 142.7 ± 139.4 %
- Increasing rate of threshold pain after administration ( X ± SD) (mice [4]; 4 mg/kg stomach perfusion, 30 minutes): 104.1 ± 137.4 %
- Increasing rate of threshold pain after administration ( X ± SD) (mice [4]; 4 mg/kg stomach perfusion, 60 minutes): 81.7 ± 100.0 %
- Increasing rate of threshold pain after administration ( X ± SD) (mice [4]; 4 mg/kg stomach perfusion, 90 minutes): 34.4 ± 59.3 %
- Increasing rate of threshold pain after administration ( X ± SD) (mice [4]; 4 mg/kg stomach perfusion, 120 minutes): 59.1 ± 55.6 %
- Pain suppression rate (Kunming breed mice [6]): 48.0%

SMILES: COC[C@]12CN(C)[C@H]3C4C(OC)C1C3(C(OC)CC2O)C1C[C@@]2(O)C(OC(=O)c3ccccc3)C1[C@]4(OC(C)=O)[C@@H](O)C2OC (stereo partly shown) [Mesaconitine, mesaconitine]
- Body twisting number ( χ ± SD) (Kunming breed mice [1]; [16]): 33.6 ± 11.5
- Pain suppression rate (Kunming breed mice [1]; [16]): 14.50%
- Body twisting number ( χ ± SD) (Kunming breed mice [1]; [12]): 20.0 ± 9.6^ΔΔ
- Pain suppression rate (Kunming breed mice [1]; [12]): 49.11%
- Body twisting number ( χ ± SD) (Kunming breed mice [1]; [13]): 21.8 ± 12.6^ΔΔ
- Pain suppression rate (Kunming breed mice [1]; [13]): 44.53%
- Body twisting number ( χ ± SD) (Kunming breed mice [1]; [14]): 19.3 ± 10.0^ΔΔ
- Pain suppression rate (Kunming breed mice [1]; [14]): 50.89%
- LD50 ([5]; LD50): 6.41 mg/kg
- Pain suppression rate (Kunming breed mice [7]): 62.6%
- Increasing rate of threshold pain after administration ( X ± SD) (mice [4]; 12.5 mg/kg stomach perfusion, 15 minutes): 12.1 ± 45.0%
- Increasing rate of threshold pain after administration ( X ± SD) (mice [4]; 12.5 mg/kg stomach perfusion, 30 minutes): −6.3 ± 31.4%
- Increasing rate of threshold pain after administration ( X ± SD) (mice [4]; 12.5 mg/kg stomach perfusion, 60 minutes): −0.5 ± 38.7%
- Increasing rate of threshold pain after administration ( X ± SD) (mice [4]; 12.5 mg/kg stomach perfusion, 90 minutes): −11.3 ± 34.2%
- Increasing rate of threshold pain after administration ( X ± SD) (mice [4]; 12.5 mg/kg stomach perfusion, 120 minutes): 11.1 ± 38.8%
- Increasing rate of threshold pain after administration ( X ± SD) (mice [4]; 25 mg/kg stomach perfusion, 15 minutes): 39.7 ± 76.6%
- Increasing rate of threshold pain after administration ( X ± SD) (mice [4]; 25 mg/kg stomach perfusion, 30 minutes): 59.2 ± 146.9%
- Increasing rate of threshold pain after administration ( X ± SD) (mice [4]; 25 mg/kg stomach perfusion, 60 minutes): 37.2 ± 88.5%
- Increasing rate of threshold pain after administration ( X ± SD) (mice [4]; 25 mg/kg stomach perfusion, 90 minutes): 61.3 ± 82.1^Δ %
- Increasing rate of threshold pain after administration ( X ± SD) (mice [4]; 25 mg/kg stomach perfusion, 120 minutes): 80.7 ± 100.1%
- Increasing rate of threshold pain after administration ( X ± SD) (mice [4]; 50 mg/kg stomach perfusion, 15 minutes): 21.4 ± 42.9%
- Increasing rate of threshold pain after administration ( X ± SD) (mice [4]; 50 mg/kg stomach perfusion, 30 minutes): 14.4 ± 34.7%
- Increasing rate of threshold pain after administration ( X ± SD) (mice [4]; 50 mg/kg stomach perfusion, 60 minutes): 7.9 ± 37.8%
- Increasing rate of threshold pain after administration ( X ± SD) (mice [4]; 50 mg/kg stomach perfusion, 90 minutes): 30.4 ± 44.1^Δ %
- Increasing rate of threshold pain after administration ( X ± SD) (mice [4]; 50 mg/kg stomach perfusion, 120 minutes): 36.0 ± 42.6%
- Increasing rate of threshold pain after administration ( X ± SD) (mice [4]; mesaconitine 100 mg/kg stomach perfusion, 15 minutes): 124.8 ± 165.4%
- Increasing rate of threshold pain after administration ( X ± SD) (mice [4]; mesaconitine 100 mg/kg stomach perfusion, 30 minutes): 97.7 ± 184.6%
- Increasing rate of threshold pain after administration ( X ± SD) (mice [4]; mesaconitine 100 mg/kg stomach perfusion, 60 minutes): 64.3 ± 149.5%
- Increasing rate of threshold pain after administration ( X ± SD) (mice [4]; mesaconitine 100 mg/kg stomach perfusion, 90 minutes): 108.3 ± 105.0^ΔΔ %
- Increasing rate of threshold pain after administration ( X ± SD) (mice [4]; mesaconitine 100 mg/kg stomach perfusion, 120 minutes): 49.0 ± 52.9%

SMILES: CCOC(=O)C1(c2ccccc2)CCN(C)CC1 [Pethidine hydrochloride, pethidine hydrochloride, reference compound]
- Body twisting number ( χ ± SD) (Kunming breed mice [1]; mouse, in vivo, 40 mg/kg): 0 ± 0
- Pain suppression rate (Kunming breed mice [1]; mouse, in vivo, 40 mg/kg, hydrochloride): 100%

— US20090163528A1, “Pharmaceutical composition having analgesic effects” (priority 2004, published 2009)
